Here are results for one compound from PubChem BioAssay AID1259411 (Chemical Carcinogenesis Research Information System (CCRIS), 2018).

Active and inactive are the calls of the source. How the calls were made is not given here.

The subject of this data set is rodent carcinogenicity bioassays, tumor incidence. As to the kind of experiment: CCRIS carcinogenicity studies. The method, boiled down:
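NCI-built, expert-reviewed records of carcinogenicity and related test outcomes (mutagenicity, tumor promotion/inhibition) compiled from published and report sources, historical span 1985-2011, not updated.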

For `C=CCl`, the carcinogen call is “active; positive” (Species: HAMSTER, Strain/Sex: SYRIAN/MALE, Route: INHALATION, Dose: 0, 50, 250, 500, 2500, 6000, 10000 PPM 4 HR/D, 5 D/WK FOR (STUDY DURATION: 109 WK), Dose: 0, 50, 250, 500, 2500, 6000, 10000 PPM 4 HR/D, 5 D/WK FOR (STUDY DURATION: 109 WK), Tumor Site: Type of Lesion: INTEGUMENTARY SYSTEM (SKIN): EPITHELIOMA, FORESTOMACH: PAPILLOMA OR ACANTHOMA, LIVER: ANGIOMA OR ANGIOSARCOMA, Tumor Site: Type of Lesion: INTEGUMENTARY SYSTEM (SKIN): EPITHELIOMA, FORESTOMACH: PAPILLOMA OR ACANTHOMA, LIVER: ANGIOMA OR ANGIOSARCOMA); “active; positive” (Species: HAMSTER, Strain/Sex: SYRIAN, Route: INHALATION, Tumor Site: Type of Lesion: LIVER); “active; positive” (Species: HUMAN, Route: INHALATION, Tumor Site: Type of Lesion: LIVER, BRAIN, LUNG, Tumor Site: Type of Lesion: LIVER, BRAIN, LUNG); “active; positive” (Species: MOUSE, Strain/Sex: ICR/FEMALE, Route: INHALATION, Dose: 0, 50, 500, 5000, 50000 PPM ONCE FOR 1 HR (STUDY DURATION: 18 MO), Dose: 0, 50, 500, 5000, 50000 PPM ONCE FOR 1 HR (STUDY DURATION: 18 MO), Tumor Site: Type of Lesion: LUNG: ALVEOLAR/BRONCHIOLAR ADENOMA OR CARCINOMA); “active; positive” (Species: MOUSE, Strain/Sex: ICR/MALE, Route: INHALATION, Dose: 0, 50, 500, 5000, 50000 PPM ONCE FOR 1 HR (STUDY DURATION: 18 MO), Dose: 0, 50, 500, 5000, 50000 PPM ONCE FOR 1 HR (STUDY DURATION: 18 MO), Tumor Site: Type of Lesion: LUNG: ALVEOLAR/BRONCHIOLAR ADENOMA OR CARCINOMA); “active; positive” (Species: MOUSE, Strain/Sex: SWISS/MALE,FEMALE, Route: INHALATION, Dose: 0, 50, 250, 500, 2500, 6000, 10000 PPM 4 HR/D, 5 D/WK FOR 30 WK (STUDY DURATION: 81 WK), Dose: 0, 50, 250, 500, 2500, 6000, 10000 PPM 4 HR/D, 5 D/WK FOR 30 WK (STUDY DURATION: 81 WK), Tumor Site: Type of Lesion: LIVER: ANGIOMA, ANGIOSARCOMA, LUNG: TUMOR (NOS), MAMMARY GLAND: CARCINOMA, Tumor Site: Type of Lesion: LIVER: ANGIOMA, ANGIOSARCOMA, LUNG: TUMOR (NOS), MAMMARY GLAND: CARCINOMA). Further, the carcinogen call runs as follows: (Species: MOUSE, Strain/Sex: SWISS, Route: INHALATION, Tumor Site: Type of Lesion: LIVER, LUNG, MAMMARY GLAND, Tumor Site: Type of Lesion: LIVER, LUNG, MAMMARY GLAND) “active; positive”; (Species: RAT, Route: INHALATION, Tumor Site: Type of Lesion: LIVER, LUNG, KIDNEY, EAR (ZYMBAL GLAND), Tumor Site: Type of Lesion: LIVER, LUNG, KIDNEY, EAR (ZYMBAL GLAND)) “active; positive”; (Species: RAT, Strain/Sex: SPRAGUE-DAWLEY/FEMALE, Route: GAVAGE, Dose: 0, 0.03, 0.3, 1, 3.33, 16.65, 50 MG/KG BW IN OLIVE OIL 1/D 4-5 D/WK FOR 52-59 WK (STUDY DURATION: LIFETIME), Dose: 0, 0.03, 0.3, 1, 3.33, 16.65, 50 MG/KG BW IN OLIVE OIL 1/D 4-5 D/WK FOR 52-59 WK (STUDY DURATION: LIFETIME), Tumor Site: Type of Lesion: [BRAIN WAS ONLY SITE EVALUATED]) “inactive; negative”; (Species: RAT, Strain/Sex: SPRAGUE-DAWLEY/FEMALE, Route: INHALATION, Dose: 0, 50, 250, 500, 2500, 6000, 10000 PPM IN AIR 4 HR/D 5 D/WK FOR 17 WK (STUDY DURATION: LIFETIME), Dose: 0, 50, 250, 500, 2500, 6000, 10000 PPM IN AIR 4 HR/D 5 D/WK FOR 17 WK (STUDY DURATION: LIFETIME), Tumor Site: Type of Lesion: BRAIN: NEUROBLASTOMA [ONLY SITE EVALUATED]) “active; positive”; (Species: RAT, Strain/Sex: SPRAGUE-DAWLEY/FEMALE, Route: INHALATION, Dose: 0, 2500 PPM 4 HR/D 5 D/WK FOR 7 WK THEN 7 HR/D 5 D/WK FOR 8 WK ADMINISTERED TO RAT EMBRYOS BEGINNING ON 12TH DAY OF GEST, Tumor Site: Type of Lesion: LIVER: HEPATOMA, ANGIOSARCOMA, BRAIN: NEUROBLASTOMA) “active; positive”; (Species: RAT, Strain/Sex: SPRAGUE-DAWLEY/FEMALE, Route: INHALATION, Dose: 0, 2500 PPM 4 HR/D 5 D/WK FOR 7 WK THEN 7 HR/D 5 D/WK FOR 69 WK ADMINISTERED TO BREEDER RATS (STUDY DURATION: 76 WK), Tumor Site: Type of Lesion: BRAIN: NEUROBLASTOMA, LIVER, HEPATOCARCINOMA, ANGIOSARCOMA, Tumor Site: Type of Lesion: BRAIN: NEUROBLASTOMA, LIVER, HEPATOCARCINOMA, ANGIOSARCOMA) “active; positive”. Moreover, the carcinogen call by setting is: (Species: RAT, Strain/Sex: SPRAGUE-DAWLEY/FEMALE, Route: INHALATION, Dose: 0, 2500 PPM 4 HR/D 5 D/WK FOR 7 WK THEN 7 HR/D 5 D/WK FOR 69 WK ADMINISTERED TO RAT EMBRYOS BEGINNING ON 12TH DAY OF GES, Tumor Site: Type of Lesion: BRAIN: NEUROBLASTOMA, LIVER, HEPATOCARCINOMA, ANGIOSARCOMA, Tumor Site: Type of Lesion: BRAIN: NEUROBLASTOMA, LIVER, HEPATOCARCINOMA, ANGIOSARCOMA) “active; positive”; (Species: RAT, Strain/Sex: SPRAGUE-DAWLEY/FEMALE, Route: INHALATION, Dose: 0, 6000, 10000 PPM IN AIR 1 HR/D 4 D/WK FOR 25 WK (STUDY DURATION: LIFETIME), Dose: 0, 6000, 10000 PPM IN AIR 1 HR/D 4 D/WK FOR 25 WK (STUDY DURATION: LIFETIME), Tumor Site: Type of Lesion: [BRAIN WAS ONLY SITE EVALUATED]) “inactive; negative”.
